{"source": "patent US20020177120A1", "about": "“ASSAYS FOR APOTOSIS MODULATORS” (priority 1999, published 2002)", "type_in_all_cases": "cell-based, human", "key": {"HEK293 cells": {"system": "HEK293 cells", "experiment": "Annexin V apoptotic membrane assay in SAT-reporter-transformed HEK293 cells", "settings": "staurosporin, 4 hrs.", "description": "A test system was constructed to evaluate SAT reporter expression and feasibility of detecting FRET signal changes in mammalian cells in microtiter assays. The human embryonic kidney-derived HEK293 cell line was chosen as a host because of its relatively high transfection efficiency, rapid growth, easy maintenance and suitability for microplate assay formats. In preliminary experiments in which HEK293 cells were transfected with pcDNA3-Emerald, transformed cells were fluorescent and there was no loss of fluorescence, or obvious detrimental effects on cell morphology or growth, in a selected pool of cells (i.e., mixed populations of cells) over the course of one month. […] Optimal conditions for transfection of HEK 293 cells with SAT-reporter plasmid were determined. Cells transfected using LIPOFECTAMINE (Life Technologies) and selected in G418 (Life Technologies) expressed full-length SAT reporter protein as determined by western analysis of transformed HEK293 cells after two weeks of in vitro selection. […] Under these conditions of treatment with staurosporin only about half of the SAT-reporter-transformed HEK293 cells in the population were apoptotic at 4 hrs. as determined using the Annexin V assay (Materials and Methods). […]"}, "F1-1-42 cells": {"system": "F1-1-42 cells", "experiment": "Staurosporin-induced apoptosis in F1-1-42 SAT FRET reporter cells (FRET signal, western blot, caspase-3, morphology)", "description": "Detecting Intracellular Changes in a FRET Reporter in Cells Undergoing Apoptosis: Having established that SAT reporter protein synthesized in HEK293 cells could be cleaved ex vivo, i.e., in cell lysates by trypsin (above), an initial in vivo intracellular assay was conducted using the selected F1-1-42 clonal cell line and staurosporin to induce apoptosis. […] In these experiments the F1-1-42 cells were plated at a density of 4×10^5 cells/0.5 ml in each well of a 24-well microtiter plate. After overnight incubation, apoptosis was induced by adding staurosporin to a final concentration of 5 μM, and using vehicle (0.25% DMSO) as a negative control. Assays for caspase-3 were used to confirm that apoptosis was induced. […] Subsequent testing determined that significant changes in FRET signal were first detectable at about 8 hours after addition of staurosporin and were maximal by 24 hrs post-induction."}, "U-138 cells": {"system": "U-138 cells", "experiment": "FRET signal in SAT-transfected U-138 cells", "settings": "pcDNA3VH-SAT transfected U-138 parental cultures", "description": "Stable expression of the SAT reporter in U-138 cells was investigated by transfecting cultures with pcDNA3VH-SAT using calcium phosphate (Materials and Methods), and then selecting in medium containing G418 ([…]). […] The parental culture showing the strongest fluorescence and best growth characteristics was subcloned. Unexpectedly, the ability of the subclones to produce a staurosporin-inducible change in FRET signal was not stable, i.e., disappearing at passages 9, 11 and 13, but then reappearing at passage 16. While it was speculated that this phenomena may have resulted from some difference in expression and/or regulation of apoptosis or FRET reporter in sub-cultures of cells, these properties were not considered desirable and these SAT-transfected U-138 cell lines were discontinued in hopes that an improved reporter construct might solve the problem of irreproducibility."}, "F10-24-2 control cells": {"system": "F10-24-2 control cells", "experiment": "FRET reporter control assay in F10-24-2 (SnAT) cells", "description": "Transfection of pcDNA3VH-SgAT and pcDNA3VH-SnAT into U-138 cells (using methods described above) resulted initially in few colonies and FRET signal was lost in many clones during expansion, however, from among the various subclones the F9-1-13 (pcDNA3VH-SgAT transfected; ATCC No. PTA-84) and F10-24-2 (pcDNA3-SnAT transfected) subclones were eventually expanded and shown to express stable FRET signals. As desired, the FRET signal expressed in F9-1-13 decreased in response to both staurosporin and anti-Fas antibody treatment of cells, while the FRET signal expressed by the F10-24-2 control cells, (i.e., lacking a caspase substrate domain), was unaffected following staurosporin or anti-Fas antibody treatment. […] F9-1-13 therefore appeared suitable for microtiter assays, and perhaps use in HTS assays for screening to identify and select modulators of apoptosis."}}}
{"compound": "CN[C@@H]1C[C@H]2O[C@@](C)([C@@H]1OC)n1c3ccccc3c3c4c(c5c6ccccc6n2c5c31)C(=O)NC4", "note": "[staurosporin]", "values": [{"measurement": "cells in the population apoptotic (Annexin V assay)", "setting": "HEK293 cells", "result": "about half"}, {"measurement": "SAT reporter cleavage by western analysis after induction", "setting": "F1-1-42 cells; 5 μM staurosporin", "result": "cleavage of the SAT reporter"}, {"measurement": "caspase-3 activity after induction", "setting": "F1-1-42 cells; 5 μM staurosporin", "result": "caspase-3 activation"}, {"measurement": "FRET signal change after induction", "setting": "F1-1-42 cells; 5 μM staurosporin, 24-well plate, 4×10^5 cells/0.5 ml", "result": "concomitant decrease in FRET signal"}, {"measurement": "time at which significant changes in FRET signal were first detectable", "setting": "F1-1-42 cells; after addition of staurosporin", "result": "about 8 hours"}, {"measurement": "time at which FRET signal changes were maximal", "setting": "F1-1-42 cells; post-induction with staurosporin", "result": "≤ 24", "unit": "h"}, {"measurement": "FRET signal change, correlated with FRET reporter cleavage in western blot", "setting": "U-138 cells", "result": "induced changes in FRET signal"}, {"measurement": "FRET signal response to inducer treatment", "setting": "F10-24-2 control cells; reporter lacking a caspase substrate domain", "result": "unaffected"}, {"measurement": "FRET reporter western blot before and after induction of apoptosis", "setting": "F10-24-2 control cells; staurosporin induction", "result": "no visible difference"}]}
